ChEMBL document CHEMBL5608259 (J Med Chem, 2024)
Calls of active or inactive are those of the source. The calls are words filed in the database; no cut-off is given here.

How the values were obtained:
[1] = target: T1, Histone-arginine methyltransferase CARM1 (Homo sapiens) (UniProt Q86X55); test: Inhibition of human PRMT4 using histone H3 as substrate and SAM as cofactor at 10 uM by radiometric HotSpot assay relative to control
T1 sequence (whole entry): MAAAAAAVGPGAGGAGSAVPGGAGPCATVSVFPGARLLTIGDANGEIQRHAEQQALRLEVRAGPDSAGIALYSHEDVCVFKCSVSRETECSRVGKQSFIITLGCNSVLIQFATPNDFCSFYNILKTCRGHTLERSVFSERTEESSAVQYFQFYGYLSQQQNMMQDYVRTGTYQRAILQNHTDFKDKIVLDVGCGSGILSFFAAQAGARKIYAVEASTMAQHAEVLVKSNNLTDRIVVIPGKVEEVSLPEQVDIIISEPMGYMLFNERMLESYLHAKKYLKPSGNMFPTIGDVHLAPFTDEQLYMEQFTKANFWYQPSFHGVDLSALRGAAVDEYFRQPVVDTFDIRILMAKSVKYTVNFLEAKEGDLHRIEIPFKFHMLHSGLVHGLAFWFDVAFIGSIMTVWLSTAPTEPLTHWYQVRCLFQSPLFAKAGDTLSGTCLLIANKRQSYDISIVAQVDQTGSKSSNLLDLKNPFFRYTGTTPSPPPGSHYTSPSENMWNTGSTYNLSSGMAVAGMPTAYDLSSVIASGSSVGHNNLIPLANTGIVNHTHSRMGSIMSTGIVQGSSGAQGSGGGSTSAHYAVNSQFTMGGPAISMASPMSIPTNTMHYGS

[2] = target: Protein arginine N-methyltransferase 3 (Homo sapiens, UniProt O60678); test: Inhibition of human PRMT3 using H4-21peptide as substrate at 10 uM incubated for 10 mins by fluorescence based analysis relative to control
Protein arginine N-methyltransferase 3, sequence (O60678 2-531 limits assumed): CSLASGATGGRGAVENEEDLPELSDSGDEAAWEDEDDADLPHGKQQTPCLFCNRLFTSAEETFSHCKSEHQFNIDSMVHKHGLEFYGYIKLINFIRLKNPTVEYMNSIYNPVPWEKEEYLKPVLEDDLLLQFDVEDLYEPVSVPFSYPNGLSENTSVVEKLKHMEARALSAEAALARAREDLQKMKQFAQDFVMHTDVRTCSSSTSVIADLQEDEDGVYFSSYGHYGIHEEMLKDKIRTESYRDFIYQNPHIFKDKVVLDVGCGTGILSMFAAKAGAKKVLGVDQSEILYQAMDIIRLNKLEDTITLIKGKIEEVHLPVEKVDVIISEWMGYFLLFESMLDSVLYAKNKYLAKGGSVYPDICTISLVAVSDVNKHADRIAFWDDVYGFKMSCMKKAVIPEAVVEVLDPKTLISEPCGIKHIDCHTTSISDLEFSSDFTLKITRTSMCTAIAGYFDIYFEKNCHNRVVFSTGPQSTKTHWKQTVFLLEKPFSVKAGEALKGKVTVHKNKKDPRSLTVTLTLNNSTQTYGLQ

[3] = target: Protein arginine N-methyltransferase 8 (Homo sapiens, UniProt Q9NR22); test: Inhibition of human PRMT8 using Histone H4 as substrate and SAM as cofactor at 10 uM by radiometric HotSpot assay relative to control
Protein arginine N-methyltransferase 8, sequence (Q9NR22 2-394 limits assumed): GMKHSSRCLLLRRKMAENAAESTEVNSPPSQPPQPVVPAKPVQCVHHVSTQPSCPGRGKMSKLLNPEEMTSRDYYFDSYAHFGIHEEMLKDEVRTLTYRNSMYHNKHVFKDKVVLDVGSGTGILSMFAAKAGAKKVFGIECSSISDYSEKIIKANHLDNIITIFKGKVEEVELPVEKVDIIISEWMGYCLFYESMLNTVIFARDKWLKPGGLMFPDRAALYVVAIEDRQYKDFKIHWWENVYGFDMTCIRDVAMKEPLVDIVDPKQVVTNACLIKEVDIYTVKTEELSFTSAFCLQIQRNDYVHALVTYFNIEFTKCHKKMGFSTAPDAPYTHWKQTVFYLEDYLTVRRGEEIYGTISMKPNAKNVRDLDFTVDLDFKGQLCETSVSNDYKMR

[4] = target: Protein arginine N-methyltransferase 6 (Homo sapiens, UniProt Q96LA8); test: Inhibition of human PRMT6 using GST-GAR as substrate and SAM as cofactor at 10 uM by radiometric HotSpot assay relative to control
Protein arginine N-methyltransferase 6, sequence (Q96LA8 whole entry, looked up): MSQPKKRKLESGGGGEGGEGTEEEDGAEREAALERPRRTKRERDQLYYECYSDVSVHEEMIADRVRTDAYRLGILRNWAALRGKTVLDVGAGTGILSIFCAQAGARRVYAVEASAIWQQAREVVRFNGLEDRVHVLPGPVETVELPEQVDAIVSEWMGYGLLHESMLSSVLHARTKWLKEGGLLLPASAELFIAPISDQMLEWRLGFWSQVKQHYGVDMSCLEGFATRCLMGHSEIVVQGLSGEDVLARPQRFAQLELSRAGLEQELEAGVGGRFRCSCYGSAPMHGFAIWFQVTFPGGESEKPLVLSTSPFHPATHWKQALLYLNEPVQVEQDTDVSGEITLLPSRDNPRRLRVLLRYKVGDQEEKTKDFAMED

[5] = target: Protein arginine N-methyltransferase 1 (Homo sapiens, UniProt Q99873); test: Inhibition of human PRMT1 using H4-21peptide as substrate at 10 uM incubated for 10 mins by fluorescence based analysis relative to control
Protein arginine N-methyltransferase 1, sequence (Q99873 whole entry, looked up): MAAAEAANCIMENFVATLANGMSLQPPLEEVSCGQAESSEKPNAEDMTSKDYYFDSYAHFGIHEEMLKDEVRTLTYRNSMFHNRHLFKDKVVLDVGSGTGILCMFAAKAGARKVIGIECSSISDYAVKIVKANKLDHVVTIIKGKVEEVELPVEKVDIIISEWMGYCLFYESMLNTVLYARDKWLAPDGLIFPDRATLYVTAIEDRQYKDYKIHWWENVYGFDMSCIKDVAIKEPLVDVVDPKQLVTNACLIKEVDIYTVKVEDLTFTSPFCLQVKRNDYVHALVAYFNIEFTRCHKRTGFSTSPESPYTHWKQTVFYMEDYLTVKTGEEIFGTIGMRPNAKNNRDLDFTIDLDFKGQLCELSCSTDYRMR

inhibition [1] | inhibition [2] | inhibition [3] | inhibition [4] | inhibition [5] | SMILES
> 90% | < 30% | > 50% | 50% |  | Nc1ncnc2c1ncn2[C@@H]1O[C@H](CSCCNCc2cccc(-c3ccccc3O)c2)[C@@H](O)[C@H]1O
 | < 30% | < 50% | < 50% | inactive | Nc1ncnc2c1ncn2[C@@H]1O[C@H](CSCCOc2ccc(-c3ccc(O)cc3)cc2)[C@@H](O)[C@H]1O
> 90% | < 30% | > 50% | 50% |  | Nc1ncnc2c1ncn2[C@@H]1O[C@H](CSCCNCc2cccc(-c3ccc(F)c(O)c3)c2)[C@@H](O)[C@H]1O
> 90% | < 30% | > 50% | 50% |  | Nc1ncnc2c1ncn2[C@@H]1O[C@H](CSCCNCc2cccc(-c3ccc(C(F)(F)F)cc3)c2)[C@@H](O)[C@H]1O
 | < 30% | < 50% | > 70% | inactive | COc1cc2nc(-c3ccc(Cl)cc3)nc(NCCSC[C@H]3O[C@@H](n4cnc5c(N)ncnc54)[C@H](O)[C@@H]3O)c2cc1OC
> 90% |  | > 95% | > 90% | > 50% | N=C(NCCCSC[C@H]1O[C@@H](n2cnc3c(N)ncnc32)[C@H](O)[C@@H]1O)NCc1ccccc1
> 90% | < 30% | > 50% | 50% |  | Nc1ncnc2c1ncn2[C@@H]1O[C@H](CSCCCNCc2cccc(-c3ccc(F)c(O)c3)c2)[C@@H](O)[C@H]1O
> 90% | < 30% | > 50% | 50% |  | Nc1ncnc2c1ncn2[C@@H]1O[C@H](CSCCCNCc2cccc(-c3cccc4cn[nH]c34)c2)[C@@H](O)[C@H]1O
> 90% |  | > 95% | > 90% | > 50% | N=C(NCCSC[C@H]1O[C@@H](n2cnc3c(N)ncnc32)[C@H](O)[C@@H]1O)NCc1ccccc1
> 90% |  | > 95% | > 90% | > 50% | N=C(NCCCSC[C@H]1O[C@@H](n2cnc3c(N)ncnc32)[C@H](O)[C@@H]1O)Nc1cccc(-c2ccc3c(c2)OCCO3)c1
> 90% |  | > 95% | > 90% | > 50% | N=C(NCCCSC[C@H]1O[C@@H](n2cnc3c(N)ncnc32)[C@H](O)[C@@H]1O)Nc1cccc(-c2ccc(F)c(O)c2)c1
> 90% |  | > 95% | > 90% | > 50% | N=C(NCCCSC[C@H]1O[C@@H](n2cnc3c(N)ncnc32)[C@H](O)[C@@H]1O)Nc1ccccc1
> 90% |  | > 95% | > 90% | > 50% | N=C(NCCSC[C@H]1O[C@@H](n2cnc3c(N)ncnc32)[C@H](O)[C@@H]1O)Nc1cccc(-c2ccoc2)c1
 | < 30% | < 50% | < 50% | inactive | Nc1ncnc2c1ncn2[C@@H]1O[C@H](CSCCOc2ccc(-c3ccc(F)cc3)cc2)[C@@H](O)[C@H]1O
> 90% |  | > 95% | > 90% | > 50% | N=C(NCCCSC[C@H]1O[C@@H](n2cnc3c(N)ncnc32)[C@H](O)[C@@H]1O)Nc1cccc(-c2ccc(C(F)(F)F)cc2)c1
> 90% |  | > 95% | > 90% | > 50% | N=C(NCCCSC[C@H]1O[C@@H](n2cnc3c(N)ncnc32)[C@H](O)[C@@H]1O)Nc1cccc(-c2ccc(F)cc2F)c1
> 90% |  | > 95% | > 90% | > 50% | N=C(NCCSC[C@H]1O[C@@H](n2cnc3c(N)ncnc32)[C@H](O)[C@@H]1O)Nc1cccc(-c2ccc(Cl)cc2)c1
> 90% |  | > 95% | > 90% | > 50% | N=C(NCCSC[C@H]1O[C@@H](n2cnc3c(N)ncnc32)[C@H](O)[C@@H]1O)Nc1cccc(-c2ccc(C(F)(F)F)cc2)c1
> 90% | < 30% | > 50% | 50% |  | Nc1ncnc2c1ncn2[C@@H]1O[C@H](CSCCCNCc2cccc(-c3ccc(Cl)cc3)c2)[C@@H](O)[C@H]1O
> 90% | < 30% | > 50% | 50% |  | Nc1ncnc2c1ncn2[C@@H]1O[C@H](CSCCNCc2cccc(-c3cccc(O)c3)c2)[C@@H](O)[C@H]1O
> 90% | < 30% | > 50% | 50% |  | Nc1ncnc2c1ncn2[C@@H]1O[C@H](CSCCCNCc2cccc(-c3ccc(C(F)(F)F)cc3)c2)[C@@H](O)[C@H]1O

Further lines, the compound ahead of its results:

SMILES | inhibition [1] | inhibition [2] | inhibition [3] | inhibition [4] | inhibition [5]
Nc1ncnc2c1ncn2[C@@H]1O[C@H](CSCCOc2ccc(-c3cccc(O)c3)cc2)[C@@H](O)[C@H]1O |  | < 30% | < 50% | < 50% | inactive
Nc1ncnc2c1ncn2[C@@H]1O[C@H](CSCCOc2ccc(-c3ccccc3O)cc2)[C@@H](O)[C@H]1O |  | < 30% | < 50% | < 50% | inactive
Nc1ncnc2c1ncn2[C@@H]1O[C@H](CSCCCNCc2cccc(-c3cccc(F)c3)c2)[C@@H](O)[C@H]1O | > 90% | < 30% | > 50% | 50% | 
Nc1ncnc2c1ncn2[C@@H]1O[C@H](CSCCNCc2cccc(-c3ccncc3)c2)[C@@H](O)[C@H]1O | > 90% | < 30% | > 50% | 50% | 
N=C(NCCCSC[C@H]1O[C@@H](n2cnc3c(N)ncnc32)[C@H](O)[C@@H]1O)Nc1cccc(-c2ccoc2)c1 | > 90% |  | > 95% | > 90% | > 50%
Nc1ncnc2c1ncn2[C@@H]1O[C@H](CSCCOc2ccc(-c3ccc(F)c(O)c3)cc2)[C@@H](O)[C@H]1O |  | < 30% | < 50% | < 50% | inactive
Nc1ncnc2c1ncn2[C@@H]1O[C@H](CSCCNCc2cccc(-c3cccc(F)c3)c2)[C@@H](O)[C@H]1O | > 90% | < 30% | > 50% | 50% | 
Nc1ncnc2c1ncn2[C@@H]1O[C@H](CSCCOc2ccc(-c3cncnc3)cc2)[C@@H](O)[C@H]1O |  | < 30% | < 50% | < 50% | inactive
N=C(NCCCSC[C@H]1O[C@@H](n2cnc3c(N)ncnc32)[C@H](O)[C@@H]1O)Nc1cccc(Br)c1 | > 90% |  | > 95% | > 90% | > 50%
N=C(NCCSC[C@H]1O[C@@H](n2cnc3c(N)ncnc32)[C@H](O)[C@@H]1O)Nc1cccc(I)c1 | > 90% |  | > 95% | > 90% | > 50%
Nc1ncnc2c1ncn2[C@@H]1O[C@H](CSCCNCc2cccc(-c3ccc(Cl)cc3)c2)[C@@H](O)[C@H]1O | > 90% | < 30% | > 50% | 50% | 
Nc1cccc(-c2cccc(CNCCSC[C@H]3O[C@@H](n4cnc5c(N)ncnc54)[C@H](O)[C@@H]3O)c2)c1 | > 90% | < 30% | > 50% | 50% | 
Nc1ncnc2c1ncn2[C@@H]1O[C@H](CSCCCNCc2cccc(-c3ccoc3)c2)[C@@H](O)[C@H]1O | > 90% | < 30% | > 50% | 50% | 
Nc1ncnc2c1ncn2[C@@H]1O[C@H](CSCCNCc2cccc(-c3cccc4cn[nH]c34)c2)[C@@H](O)[C@H]1O | > 90% | < 30% | > 50% | 50% | 
Nc1ncnc2c1ncn2[C@@H]1O[C@H](CSCCCNCc2cccc(-c3ccc(O)cc3)c2)[C@@H](O)[C@H]1O | > 90% | < 30% | > 50% | 50% | 
N=C(NCCCSC[C@H]1O[C@@H](n2cnc3c(N)ncnc32)[C@H](O)[C@@H]1O)Nc1cccc(-c2ccc(Cl)cc2)c1 | > 90% |  | > 95% | > 90% | > 50%
Nc1ncnc2c1ncn2[C@@H]1O[C@H](CSCCNCc2cccc(-c3ccc(O)cc3)c2)[C@@H](O)[C@H]1O | > 90% | < 30% | > 50% | 50% | 
N=C(NCCCSC[C@H]1O[C@@H](n2cnc3c(N)ncnc32)[C@H](O)[C@@H]1O)Nc1cccc(-c2n[nH]cc2C(F)(F)F)c1 | > 90% |  | > 95% | > 90% | > 50%
